Data: patent publication US20240246918A1, “COMPOUNDS AND COMPOSITIONS AS EIF4E INHIBITORS AND THE USES THEREOF” (Ribometrix, Inc., priority 2022, published 2024)
Where two headings read alike, the source gives them in different places.

Legend:
[1] = molecular target: T1, human eIF4E protein (Homo sapiens, UniProt P06730); assay: Biochemical competitive binding assay (TR-FRET competition, EDA-m7GDP-ATTO-647N probe); conditions: read-out: hEIF4E TR-FRET IC50
T1 construct: purchased Novus NBP-45314
Summary of the method: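 His-tagged human eIF4E (4 nM) was preincubated with Eu-anti-His antibody (2.5 nM) and added to compound (11-point, 4-fold dilutions) for 15 min. Then 5 nM EDA-m7GDP-ATTO-647N was added for 15 min, in HEPES pH 7.5, 100 mM KCl. The 665/620 TR-FRET ratio was normalized to controls, and IC50 was taken from 4-parameter fits.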

[2] = system: cap-dependent translation in Flp-In-293 reporter cells; assay: Cellular cap-dependent translation inhibition assay (dual luciferase assay, DLA; Fluc/Rluc ratio, 24 hours); format: cell-based
[3] = system: COLO 205 colorectal tumor cells; assay: Tumor cell viability inhibition assay (CellTiter-Glo 2.0, 72 hours); format: cell-based; conditions: COLO 205 cell viability
Summary of the method: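 COLO 205 cells (1500/well, RPMI-1640 + 10% FBS) exposed for 72 h to an 11-point, 4-fold dilution series; cellular ATP read by CellTiter-Glo 2.0 luminescence. Data normalized to DMSO and maximum-inhibition controls; IC50 from 4-parameter curve fit.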

[4] = Homo sapiens, Flp-In-293, 24 h, dual luciferase assay, Flp-In-293 reporter cells, 24 hours, Fluc/Rluc ratio, read-out: DLA 205 IC50

T1 sequence (P06730 whole entry): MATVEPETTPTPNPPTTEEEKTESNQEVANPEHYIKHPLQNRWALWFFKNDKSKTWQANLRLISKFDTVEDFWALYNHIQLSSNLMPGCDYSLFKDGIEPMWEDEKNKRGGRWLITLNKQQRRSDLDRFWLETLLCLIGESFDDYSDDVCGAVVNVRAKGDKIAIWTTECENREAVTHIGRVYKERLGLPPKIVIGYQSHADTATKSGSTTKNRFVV

Structure (SMILES)	IC50 [1]	IC50 [2, 4]	IC50 ([3]; Homo sapiens, COLO 205, 72 h)	IC50 ([2]; dual luciferase assay, Flp-In-293 reporter cells, 24 hours, Fluc/Rluc ratio, read-out: DLA 205 IC50)	IC50 [3]	IC50 ([2]; read-out: DLA 205 IC50, dual luciferase assay, Flp-In-293 reporter cells, 24 hours, Fluc/Rluc ratio)	IC50 ([3]; Homo sapiens)	IC50 ([2]; Homo sapiens, Flp-In-293, 24 h, read-out: DLA 205 IC50, dual luciferase assay, Flp-In-293 reporter cells, 24 hours, Fluc/Rluc ratio)
Cc1cc(-c2cc(Cl)ccc2OCCn2c(C)nc3c(c2=O)CC(N(C2CCC2)C2CC2)CC3)c2scc(C(=O)O)c2n1 (stereo not drawn) [Compound 97]	< 100 nM	< 1000 nM	< 5000 nM					
Cc1cc(-c2cc(Cl)ccc2OCCn2c(C)nc3c(c2=O)CC(N(C)CC(F)(F)F)CC3)c2scc(C(=O)NS(C)(=O)=O)c2n1 (stereo not drawn) [Compound 61]	< 100 nM	< 1000 nM	< 5000 nM					
Cc1cc(-c2cc(Cl)ccc2OCCn2c(C)nc3c(c2=O)CC(N(C)C2CCC(F)(F)C2)CC3)c2scc(C(=O)O)c2n1 (single isomer, unassigned) [Compound 338]	< 100 nM			< 1000 nM	< 5000 nM			
COC1CCc2nc(C)n(CCOc3ccc(Cl)cc3-c3cc(C)nc4c(C(=O)O)csc34)c(=O)c2C1 (single isomer, unassigned) [Compound 6]	100 to 500 nM					1000 to 5000 nM	5000 to 20000 nM	
Cc1cc(-c2cc(Cl)ccc2OCCn2c(C)nc3c(c2=O)C[C@@H](N2CC[C@H](F)C2)CC3)c2scc(C(=O)NS(C)(=O)=O)c2n1 (single isomer, unassigned) [Compound 347]	< 100 nM	< 1000 nM	< 5000 nM					
Cc1cc(-c2cc(Cl)ccc2OCCn2c(C)nc3c(c2=O)CC(N(C)CC2COC2)CC3)c2scc(C(=O)O)c2n1 (stereo not drawn) [Compound 29]	< 100 nM	< 1000 nM	< 5000 nM					
Cc1cc(-c2cc(Cl)ccc2OCCn2c(C)nc3c(c2=O)C[C@H](N2CC[C@H](F)C2)CC3)c2scc(C(=O)NS(C)(=O)=O)c2n1 (single isomer, unassigned) [Compound 346]	< 100 nM	< 1000 nM	< 5000 nM					
Cc1cc(-c2cc(Cl)ccc2OCCn2c(C)nc3c(c2=O)CC2(CC3)CN(C3CC3)C2)c2scc(C(=O)O)c2n1 [Compound 270, 7-(5-chloro-2-(2-(1-cyclopropyl-2′-methyl-4′-oxo-7′,8′-dihydro-4′H-spiro[azetidine-3,6′-quinazolin]-3′(5′H)-yl)ethoxy)phenyl)-5-methylthieno[3,2-b]pyridine-3-carboxylic acid]	< 100 nM	< 1000 nM	5000 to 20000 nM					
Cc1cc(-c2cc(Cl)ccc2OCCn2c(C)nc3c(c2=O)CC(N2CC(C(F)(F)F)C2)CC3)c2scc(C(=O)O)c2n1 (stereo not drawn) [Compound 90]	< 100 nM	< 1000 nM	< 5000 nM					
CO[C@H]1CCN([C@H]2CCc3nc(C)n(CCOc4ccc(Cl)cc4-c4cc(C)nc5c(C(=O)O)csc45)c(=O)c3C2)C1 (single isomer, unassigned) [Compound 44]	< 100 nM	< 1000 nM	< 5000 nM					
Cc1cc(-c2cc(Cl)ccc2OCCn2c(C)nc3c(c2=O)CC(N(C)C)CC3)c2scc(C(=O)NS(C)(=O)=O)c2n1 (stereo not drawn) [Compound 39, 7-[5-chloranyl-2-[2-[6-[di(methyl)amino]-2-methyl-4-oxidanylidene-5,6,7,8-tetrahydroquinazolin-3-yl]ethoxy]phenyl]-5-methyl-N-methylsulfonyl-thieno[3,2-b]pyridine-3-carboxamide; 2,2,2-tris(fluorenyl)acetic acid]	< 100 nM	< 1000 nM	< 5000 nM					
COCCN(C)C1CCc2nc(C)n(CCOc3ccc(Cl)cc3-c3cc(C)nc4c(C(=O)O)csc34)c(=O)c2C1 (stereo not drawn) [Compound 33]	< 100 nM	< 1000 nM	< 5000 nM					
Cc1nc2c(c(=O)n1CC#Cc1ccc(Cl)cc1-c1ccnc3c(C(=O)NS(C)(=O)=O)csc13)CC(N(C)C1CC1)CC2 (stereo not drawn) [Compound 271]	< 100 nM	< 1000 nM	< 5000 nM					
Cc1cc(-c2cc(Cl)ccc2OCCn2c(C)nc3c(c2=O)CC(N2CCN(C)CC2)CC3)c2scc(C(=O)O)c2n1 (stereo not drawn) [Compound 10]	< 100 nM						5000 to 20000 nM	1000 to 5000 nM
Cc1cc(-c2cc(Cl)ccc2OCCn2c(C)nc3c(c2=O)CC(N2CC4COCC4C2)CC3)c2scc(C(=O)O)c2n1 (single isomer, unassigned) [Compound 67]	< 100 nM	< 1000 nM	< 5000 nM					
